Article PMC11378297, “Discovery and Profiling of New Multimodal Phenylglycinamide Derivatives as Potent Antiseizure and Antinociceptive Drug Candidates” (ACS Chemical Neuroscience, 2024)
Like-named read-outs stand apart in the source and are kept apart here.

Columns and labels:
[1] = biological target: T1, Voltage-Gated Sodium channel hNav1.6 (Homo sapiens, UniProt Q9UQD0); assay: human sodium ion channel cell based automated patch clamp assay, hNav1.6
T1 construct: Eurofins Discovery (St. Charles, MO, USA)
Procedure: (§1) Therefore, as a part of the more detailed functional characterization using automated patch clamp method, we tested the influence of (R)-32 on sodium currents mediated by several Navx channels comprising 5 different human subunits, namely, Nav1.1, Nav1.2, Nav1.3, Nav1.6, and Nav1.7, which are involved in both seizure and/or pain modulation.[74],[80],[81] As summarized in Tables S4–S8, (R)-32 starting from 10 μM effectively and in concentration-dependent manner decreased sodium currents mediated by all aforementioned sodium channel subunits. Furthermore, (R)-32 appeared to bind exclusively to sodium channels that are in an inactivated state (see pulse 2 in Tables S4–S8), but not to the channels that are in an open state (pulse 1) (for additional details, see Supporting Information).
(§2) Human sodium ion channels cell based automated patch clamp assay
Human sodium ion channels cell based automated patch clamp assays: sodium channels exist in, a) a resting or closed state at -120 mV, b) a transient open state that inactivates to c) inactivated state at -10 mV. Sodium current inhibition within 1-2 ms of channel opening at 0 mV is open channel inhibition (pulse 1). In order to completely inactivate the sodium channels and facilitate inactivated state-dependent binding of the drug, the channels were kept at […] ( -10 mV) longer (pulsed for 500 ms) and then stepped back to -120 mV for 10 ms to recover from inactivation into resting or closed state (but the channels that had drug bound to them will not recover from inactivation and will not open) before stepping to -10 mV for 50 ms (pulse 2) to mea sure sodium channels that are available to open. The higher inhibition seen at pulse 2 is due to inactivated state -dependent inhibition. Pulse 1 and 2 are used to investigate drug binding to the open state and inactivated state of the Na channels, respectively. Each concentration of compound is applied for 5 minutes. The results obtained for (R)-32 are summerized in Tables S4–S8. […]
(§3) Compound Concentration Measurement % Inhibition
(§4) Data interpretation: Results showing inhibition greater than 50% are considered to represent significant effects of test compound and have been bolded for (R)-32 for better visualization. The studies were carried out in Eurofins Discovery (St. Charles, MO, USA).

[2] = test system: 6 Hz (44 mA) seizures, mice; assay: 6 Hz (44 mA) seizure test; type: in vivo; details: Mus musculus, ip, pretreatment time 0.5 h
Text: Both the aforementioned parameters (ED50 and TD50) enabled the calculation of protective indexes (PIs), which reflect the comparative the benefit–risk ratio of these experimental therapeutic agents.
Four mice per group were randomly assigned to each experimental group in the initial screening experiments (each mouse was used just once). Four groups, each with eight animals, received injections of different doses of the investigated substances in order to determine the ED50 or TD50 values. The PIs for the compounds investigated and reference ASMs were calculated by dividing the TD50 value, as determined in the chimney test by the respective ED50 value, as determined in the MES, scPTZ, or 6 Hz (32 mA or 44 mA) tests (PI = TD50/ED50). The PIs are a measure of the potential therapeutic window of the tested agent.
All substances were suspended in Tween 80 (1% aqueous solution) and administered i.p. as a single injection at a volume of 10 mL/kg. On each day of experimentation, fresh solutions were prepared.

[3] = biological target: T2, Voltage-Gated Sodium channel hNav1.1 (Homo sapiens, UniProt P35498); assay: human sodium ion channel cell based automated patch clamp assay, hNav1.1
T2 construct: Eurofins Discovery (St. Charles, MO, USA)
Procedure: as §1, §2
Human sodium ion channels cell based automated patch clamp assays: sodium channels exist in, a) a resting or closed state at -120 mV, b) a transient open state that inactivates to c) inactivated state at -10 mV. Sodium current inhibition within 1-2 ms of channel opening at 0 mV is open channel inhibition (pulse 1). In order to completely inactivate the sodium channels and facilitate inactivated state-dependent binding of the drug, the channels were kept at […] ( -10 mV) longer (pulsed for 500 ms) and then stepped back to -120 mV for 10 ms to recover from inactivation into resting or closed state (but the channels that had drug bound to them will not recover from inactivation and will not open) before stepping to -10 mV for 50 ms (pulse 2) to mea sure sodium channels that are available to open. The higher inhibition seen at pulse 2 is due to inactivated state -dependent inhibition. Pulse 1 and 2 are used to investigate drug binding to the open state and inactivated state of the Na channels, respectively. Each concentration of compound is applied for 5 minutes. The results obtained for (R)-32 are summerized in Tables S4–S8.
Table S4. Effect of the (R)-32 on subunit Nav1.1.
Voltage-Gated Sodium channel hNav1.1
as §3, §4

[4] = test system: fast voltage-gated sodium channels in rat prefrontal cortex pyramidal neurons; assay: patch-clamp of fast voltage-gated sodium currents in prefrontal cortex pyramidal neurons; type: cell-based; details: 10 μM, control = 1.0, n = 5
Text: Figure 9 Compounds (R)-31 and (R)-32 inhibit fast voltage-gated sodium currents in prefrontal cortex pyramidal neurons. (A) Example sodium current recordings in control (black trace), after application of (R)-31 (blue trace) and after wash-out (red trace). Current traces were evoked by a rectangular voltage-step. (B) Influence of (R)-31 on sodium current is shown on an example neuron. Current traces were evoked once every 10 s. […] (C) Averaged, normalized maximal sodium current amplitudes in control, in the presence of (R)-31 and after wash-out. […] (D) Example sodium current recordings in control (black trace), after application of (R)-32 (blue trace) and after wash-out (red trace). Current traces were evoked by a rectangular voltage-step. (E) Influence of (R)-32 on sodium current is shown on an example neuron. Current traces were evoked once every 10 s. […] (F) Averaged, normalized maximal sodium current amplitudes in control, in the presence of (R)-32 and after wash-out.
Patch-clamp studies were carried out in prefrontal cortex pyramidal neurons. The methodology of slice preparation, preparation of dispersed cortical neurons, and sodium currents recording technique were the same as in our previous study.[99]

[5] = hNav1.6, Pulse 1 (open state), read-out: % Inhibition Mean
[6] = hNav1.6, Pulse 1 (open state), read-out: % Inhibition n1
[7] = hNav1.6, Pulse 1 (open state), read-out: % Inhibition n2
[8] = hNav1.6, Pulse 2 (inactivated state), read-out: % Inhibition Mean
[9] = hNav1.6, Pulse 2 (inactivated state), read-out: % Inhibition n1
[10] = hNav1.6, Pulse 2 (inactivated state), read-out: % Inhibition n2
[11] = hNav1.1, Pulse 1 (open state), read-out: % Inhibition Mean
[12] = hNav1.1, Pulse 1 (open state), read-out: % Inhibition n1
[13] = hNav1.1, Pulse 1 (open state), read-out: % Inhibition n2
[14] = hNav1.1, Pulse 2 (inactivated state), read-out: % Inhibition Mean
[15] = hNav1.1, Pulse 2 (inactivated state), read-out: % Inhibition n1
[16] = hNav1.1, Pulse 2 (inactivated state), read-out: % Inhibition n2

T1 sequence (Q9UQD0 whole entry): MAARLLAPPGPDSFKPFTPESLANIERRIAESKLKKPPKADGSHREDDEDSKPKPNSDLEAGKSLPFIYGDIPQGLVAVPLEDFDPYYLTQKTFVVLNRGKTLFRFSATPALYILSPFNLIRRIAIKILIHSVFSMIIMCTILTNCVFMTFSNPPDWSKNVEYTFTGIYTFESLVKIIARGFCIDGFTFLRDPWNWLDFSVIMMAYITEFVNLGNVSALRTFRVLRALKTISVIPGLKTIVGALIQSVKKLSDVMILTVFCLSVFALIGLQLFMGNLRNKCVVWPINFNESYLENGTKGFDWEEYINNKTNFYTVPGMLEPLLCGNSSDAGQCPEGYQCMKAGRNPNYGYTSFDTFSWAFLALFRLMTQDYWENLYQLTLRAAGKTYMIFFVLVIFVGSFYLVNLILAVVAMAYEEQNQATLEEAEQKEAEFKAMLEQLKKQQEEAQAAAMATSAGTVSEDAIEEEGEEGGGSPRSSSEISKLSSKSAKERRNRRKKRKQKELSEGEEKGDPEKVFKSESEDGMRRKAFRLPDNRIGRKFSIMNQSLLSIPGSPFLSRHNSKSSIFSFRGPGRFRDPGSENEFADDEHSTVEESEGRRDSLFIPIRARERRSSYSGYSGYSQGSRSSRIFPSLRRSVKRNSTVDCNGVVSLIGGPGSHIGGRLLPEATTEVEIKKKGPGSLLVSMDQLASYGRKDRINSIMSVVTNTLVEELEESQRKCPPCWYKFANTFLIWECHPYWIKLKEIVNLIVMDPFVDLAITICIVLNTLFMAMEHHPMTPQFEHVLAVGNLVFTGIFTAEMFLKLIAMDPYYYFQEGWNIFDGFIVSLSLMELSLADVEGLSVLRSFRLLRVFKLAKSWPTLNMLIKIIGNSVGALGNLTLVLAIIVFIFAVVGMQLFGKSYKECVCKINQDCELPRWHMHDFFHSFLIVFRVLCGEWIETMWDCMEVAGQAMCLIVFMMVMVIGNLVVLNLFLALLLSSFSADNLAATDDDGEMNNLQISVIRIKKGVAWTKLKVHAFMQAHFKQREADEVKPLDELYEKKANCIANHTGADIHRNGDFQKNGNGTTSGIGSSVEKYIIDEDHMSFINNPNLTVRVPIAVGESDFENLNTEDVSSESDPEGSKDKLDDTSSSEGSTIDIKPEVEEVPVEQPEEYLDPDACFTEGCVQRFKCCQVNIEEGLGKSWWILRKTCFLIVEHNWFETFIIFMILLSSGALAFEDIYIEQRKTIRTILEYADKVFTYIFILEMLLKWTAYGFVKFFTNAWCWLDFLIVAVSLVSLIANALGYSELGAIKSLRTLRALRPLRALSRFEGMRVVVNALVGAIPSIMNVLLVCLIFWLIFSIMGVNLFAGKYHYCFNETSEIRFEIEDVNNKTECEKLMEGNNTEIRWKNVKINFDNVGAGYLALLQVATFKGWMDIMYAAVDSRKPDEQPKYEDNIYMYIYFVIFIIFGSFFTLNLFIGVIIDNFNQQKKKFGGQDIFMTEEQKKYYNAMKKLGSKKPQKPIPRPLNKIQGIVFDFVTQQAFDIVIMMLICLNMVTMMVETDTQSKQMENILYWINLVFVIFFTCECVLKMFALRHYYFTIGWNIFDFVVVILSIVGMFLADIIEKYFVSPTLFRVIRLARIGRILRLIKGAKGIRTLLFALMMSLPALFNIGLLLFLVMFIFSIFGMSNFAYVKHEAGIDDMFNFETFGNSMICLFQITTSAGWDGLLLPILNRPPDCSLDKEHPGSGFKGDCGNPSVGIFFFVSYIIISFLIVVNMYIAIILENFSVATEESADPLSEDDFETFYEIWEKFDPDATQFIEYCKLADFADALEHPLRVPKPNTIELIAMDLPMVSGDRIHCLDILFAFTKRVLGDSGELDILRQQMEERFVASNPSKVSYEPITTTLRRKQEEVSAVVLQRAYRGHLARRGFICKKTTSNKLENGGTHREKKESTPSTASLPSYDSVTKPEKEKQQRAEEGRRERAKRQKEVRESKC

CC(=O)N[C@@H](C(=O)N1CCN(c2cccc(OC(F)(F)F)c2)CC1)c1ccccc1 [(R)-32, (R)-N-(2-Oxo-1-phenyl-2-(4-(3-(trifluoromethoxy)phenyl)piperazin-1-yl)ethyl)acetamide]
inhibition at 1 µM [1, 5]: -5.14%
inhibition at 1 µM [1, 6]: -8.4%
inhibition at 1 µM [1, 7]: -1.89%
inhibition at 10 µM [1, 5]: -10.8%
inhibition at 10 µM [1, 6]: -14.4%
inhibition at 10 µM [1, 7]: -7.25%
inhibition at 100 µM [1, 5]: -0.11%
inhibition at 100 µM [1, 6]: -1.89%
inhibition at 100 µM [1, 7]: 1.68%
inhibition at 1 µM [1, 8]: -4.59%
inhibition at 1 µM [1, 9]: -10.1%
inhibition at 1 µM [1, 10]: 0.93%
inhibition at 10 µM [1, 8]: 39.9%
inhibition at 10 µM [1, 9]: 53%
inhibition at 10 µM [1, 10]: 26.9%
inhibition at 100 µM [1, 8]: 108%
inhibition at 100 µM [1, 9]: 121%
inhibition at 100 µM [1, 10]: 95.2%
ED50 [2]: 26.5 mg/kg
inhibition at 1 µM [3, 11]: 1.61%
inhibition at 1 µM [3, 12]: 2.91%
inhibition at 1 µM [3, 13]: 0.31%
inhibition at 10 µM [3, 11]: 1.2%
inhibition at 10 µM [3, 12]: -0.28%
inhibition at 10 µM [3, 13]: 2.68%
inhibition at 100 µM [3, 11]: 31%
inhibition at 100 µM [3, 12]: 24%
inhibition at 100 µM [3, 13]: 38%
inhibition at 1 µM [3, 14]: 1.92%
inhibition at 1 µM [3, 15]: 1.74%
inhibition at 1 µM [3, 16]: 2.11%
inhibition at 10 µM [3, 14]: 41.9%
inhibition at 10 µM [3, 15]: 45.3%
inhibition at 10 µM [3, 16]: 38.6%
inhibition at 100 µM [3, 14]: 97.6%
inhibition at 100 µM [3, 15]: 97.9%
inhibition at 100 µM [3, 16]: 97.4%
averaged, maximal-normalized amplitude of voltage-gated sodium currents after application [4]: 0.61 ± 0.07
averaged, maximal-normalized amplitude of voltage-gated sodium currents after wash-out [4]: 0.72 ± 0.08
